{
  "source": "patent US10688099B2",
  "about": "“Methods for modulating the amount of RNA transcripts” (PTC Therapeutics, Inc., priority 2013, dated 2020)",
  "tested_on": "RNA isoforms in PNN 1-46 SMA type I patient-derived fibroblasts",
  "assay": "RNA Abundance Modulation (RNA isoform abundance, iFPM, HiSeq RNA sequencing)",
  "format": "cell-based, human",
  "settings": "3 μM",
  "description": "Cells from a cell line of interest are cultured in conditions sufficient to yield the number of cells capable of generating enough RNA for subsequent sequencing steps. Cells from the tested cell line are contacted with a compound described herein.\nTo culture said cells, they are seeded, at appropriate concentrations in a volume of media in a cell culture container and incubated for 4, 5, 6, 7, 8, 9, 10, or more hours. A concentrated solution of compound in a vehicle (e.g., DMSO) is then added in sufficient volume to result in the intended final concentration of the compound, for example 100 nM, 500 nM, 1 μM, 5 μM, 10 μM, 15 μM, 20 μM, or more. The cells may also be treated with vehicle alone, as a control. A number of replicates of each concentration or control may be made (e.g., 2 replicates). The cells are then incubated at a constant temperature appropriate for cell culture of the particular cell line (e.g., 37° C.) for 6, 12, 18, 24, 48, or more hours. After incubation, the growth medium is removed and the cells are washed with the appropriate buffer (e.g., PBS). Cells are then removed from adherence to the cell culture container by treatment with a solution containing trypsin, and the trypsin subsequently quenched with the appropriate volume of buffer (e.g., DMEM-FBS). The cells are then pelleted with gentle centrifugation (e.g., ≤90×g centrifugal force) and resuspended in a buffer to lyse the cells for extraction of RNA. The cell lysates may then be frozen (e.g., at −80° C.) or, alternately, may immediately be used in a procedure to purify the RNA (e.g. by use of the RNEASY PLUS® minikit). The RNA from cell lysates is eluted in the appropriate volume of buffer (e.g., RNEASE-FREE H2O®). The resulting purified RNA may then be sequenced (e.g., using RNASeq) or analyzed using a human exon array (e.g., by GENECHIP® human exon array) to determine changes in the RNA levels in those cells treated with compound compared to those cells treated only with DMSO. The purified RNA may also be quantified by other methods known in the art.\nUsing the RNA data obtained from sequencing, exon array, or other methods, a statistical analysis can reveal changes in the RNA levels of compound-treated compared with control. For example, t-test p-values may be calculated for the data obtained through sequencing and exon array methods in order to compare compound-treated cells to those treated with the DMSO control. […] Analysis of the sequencing and exon array data may then also yield predictions about the cause of the aberrant amount of an RNA transcript in the cells (e.g., perturbation of RNA splicing, RNA transcription, or RNA stability). These predictions may be further confirmed by methods known in the art. For example, RT-PCR and RT-qPCR may be used to confirm the change in amount of RNA transcripts for one or more particular transcripts of interest.\nFollowing the methods described above in Example 1, PNN 1-46 SMA type I patient-derived fibroblasts were treated with 300 nM or 3 μM Compounds 774 and 808 in 0.5% DMSO.\n700,000 cells were seeded in 10 mL of medium (DMEM plus 10% FBS) in a T-75 flask. Cells were allowed to attach for at least 4 hrs, after which 50 μL of a 200× compound solution (100% DMSO) was added to each well, and the plate was incubated at 37° C. for 24 hrs.\nAt the end of the incubation period, the supernatant was removed and the cells where washed with PBS. TrypLE (Invitrogen) express solution was added (e.g. 1.5 mL per one T75 flask). The flasks were incubated for 3 to 5 min at 37° C. The trypsin was then quenched, e.g., by adding 10 mL DMEM-FBS.\nNext, the cells were pelleted using gentle centrifugation without exceeding 90×g centrifugal force. The supernatant was removed and the cell pellet was re-suspended in 600 μL RLT buffer (the RLT buffer was supplemented with beta-mercaptoethanol according to the RNeasy protocol manual) by pipetting up and down until the pellet was completely dissolved […]",
  "data": [
    {"smiles": "CCc1nc(C)cn2nc(-c3cc(=O)n4cc(C5CCN(C)CC5)cc(C)c4n3)cc12", "note": "[Compound 774]", "values": [
      {"measurement": "L2FC (x + 1)", "setting": "TRAPPC12 AK094181", "value": 0.288},
      {"measurement": "L2abs (Cpd-DMSO)", "setting": "TRAPPC12 AK094181", "value": 2.20},
      {"measurement": "abs (Cpd-DMSO)", "setting": "TRAPPC12 AK094181", "value": 5, "unit": "iFPM"},
      {"measurement": "amp FC (x + 1)", "setting": "TRAPPC12 AK094181", "value": 1.22},
      {"measurement": "ave Cpd", "setting": "TRAPPC12 AK094181", "value": 24, "unit": "iFPM"},
      {"measurement": "FC (x + 1)", "setting": "TRAPPC12 AK098327", "value": 0.0066},
      {"measurement": "L2FC (x + 1)", "setting": "TRAPPC12 AK098327", "value": "−7.244"},
      {"measurement": "L2abs (Cpd-DMSO)", "setting": "TRAPPC12 AK098327", "value": 7.23},
      {"measurement": "abs (Cpd-DMSO)", "setting": "TRAPPC12 AK098327", "value": 151, "unit": "iFPM"},
      {"measurement": "amp FC (x + 1)", "setting": "TRAPPC12 AK098327", "value": 151.58},
      {"measurement": "ave Cpd", "setting": "TRAPPC12 AK098327", "value": 0, "unit": "iFPM"},
      {"measurement": "FC (x + 1)", "setting": "TRAPPC12 NM_016030", "value": 1.2575},
      {"measurement": "L2FC (x + 1)", "setting": "TRAPPC12 NM_016030", "value": 0.331},
      {"measurement": "L2abs (Cpd-DMSO)", "setting": "TRAPPC12 NM_016030", "value": 7.32},
      {"measurement": "abs (Cpd-DMSO)", "setting": "TRAPPC12 NM_016030", "value": 160, "unit": "iFPM"},
      {"measurement": "amp FC (x + 1)", "setting": "TRAPPC12 NM_016030", "value": 1.26},
      {"measurement": "ave Cpd", "setting": "TRAPPC12 NM_016030", "value": 781, "unit": "iFPM"},
      {"measurement": "FC (x + 1)", "setting": "TRIM2 BC025417", "value": 0.7534},
      {"measurement": "L2FC (x + 1)", "setting": "TRIM2 BC025417", "value": "−0.408"},
      {"measurement": "L2abs (Cpd-DMSO)", "setting": "TRIM2 BC025417", "value": 0.61},
      {"measurement": "abs (Cpd-DMSO)", "setting": "TRIM2 BC025417", "value": 2, "unit": "iFPM"},
      {"measurement": "amp FC (x + 1)", "setting": "TRIM2 BC025417", "value": 1.33},
      {"measurement": "ave Cpd", "setting": "TRIM2 BC025417", "value": 4, "unit": "iFPM"},
      {"measurement": "FC (x + 1)", "setting": "TRIM2 NM_015271", "value": 1.1211},
      {"measurement": "L2FC (x + 1)", "setting": "TRIM2 NM_015271", "value": 0.165},
      {"measurement": "L2abs (Cpd-DMSO)", "setting": "TRIM2 NM_015271", "value": 7.65},
      {"measurement": "abs (Cpd-DMSO)", "setting": "TRIM2 NM_015271", "value": 201, "unit": "iFPM"},
      {"measurement": "amp FC (x + 1)", "setting": "TRIM2 NM_015271", "value": 1.12},
      {"measurement": "ave Cpd", "setting": "TRIM2 NM_015271", "value": 1858, "unit": "iFPM"},
      {"measurement": "FC (x + 1)", "setting": "TRIM2 NM_001130067", "value": 0.0184},
      {"measurement": "L2FC (x + 1)", "setting": "TRIM2 NM_001130067", "value": "−5.763"},
      {"measurement": "L2abs (Cpd-DMSO)", "setting": "TRIM2 NM_001130067", "value": 5.74},
      {"measurement": "abs (Cpd-DMSO)", "setting": "TRIM2 NM_001130067", "value": 53, "unit": "iFPM"},
      {"measurement": "amp FC (x + 1)", "setting": "TRIM2 NM_001130067", "value": 54.29},
      {"measurement": "ave Cpd", "setting": "TRIM2 NM_001130067", "value": 0, "unit": "iFPM"},
      {"measurement": "FC (x + 1)", "setting": "TRIM65 NM_173547", "value": 1.6613},
      {"measurement": "L2FC (x + 1)", "setting": "TRIM65 NM_173547", "value": 0.732},
      {"measurement": "L2abs (Cpd-DMSO)", "setting": "TRIM65 NM_173547", "value": 7.49},
      {"measurement": "abs (Cpd-DMSO)", "setting": "TRIM65 NM_173547", "value": 179, "unit": "iFPM"},
      {"measurement": "amp FC (x + 1)", "setting": "TRIM65 NM_173547", "value": 1.66},
      {"measurement": "ave Cpd", "setting": "TRIM65 NM_173547", "value": 449, "unit": "iFPM"},
      {"measurement": "FC (x + 1)", "setting": "TRIM65 NM_001256124", "value": 0.0055},
      {"measurement": "L2FC (x + 1)", "setting": "TRIM65 NM_001256124", "value": "−7.514"},
      {"measurement": "L2abs (Cpd-DMSO)", "setting": "TRIM65 NM_001256124", "value": 7.51},
      {"measurement": "abs (Cpd-DMSO)", "setting": "TRIM65 NM_001256124", "value": 182, "unit": "iFPM"},
      {"measurement": "amp FC (x + 1)", "setting": "TRIM65 NM_001256124", "value": 182.75},
      {"measurement": "ave Cpd", "setting": "TRIM65 NM_001256124", "value": 0, "unit": "iFPM"},
      {"measurement": "FC (x + 1)", "setting": "TSPAN2 GU971730", "value": 0.3567},
      {"measurement": "L2FC (x + 1)", "setting": "TSPAN2 GU971730", "value": "−1.487"},
      {"measurement": "L2abs (Cpd-DMSO)", "setting": "TSPAN2 GU971730", "value": 4.19},
      {"measurement": "abs (Cpd-DMSO)", "setting": "TSPAN2 GU971730", "value": 18, "unit": "iFPM"},
      {"measurement": "amp FC (x + 1)", "setting": "TSPAN2 GU971730", "value": 2.80},
      {"measurement": "ave Cpd", "setting": "TSPAN2 GU971730", "value": 9, "unit": "iFPM"},
      {"measurement": "FC (x + 1)", "setting": "TSPAN2 NM_005725", "value": 0.3229},
      {"measurement": "L2FC (x + 1)", "setting": "TSPAN2 NM_005725", "value": "−1.631"},
      {"measurement": "L2abs (Cpd-DMSO)", "setting": "TSPAN2 NM_005725", "value": 8.17},
      {"measurement": "abs (Cpd-DMSO)", "setting": "TSPAN2 NM_005725", "value": 288, "unit": "iFPM"},
      {"measurement": "amp FC (x + 1)", "setting": "TSPAN2 NM_005725", "value": 3.10},
      {"measurement": "ave Cpd", "setting": "TSPAN2 NM_005725", "value": 136, "unit": "iFPM"},
      {"measurement": "FC (x + 1)", "setting": "U2SURP AK057679", "value": 1.1346},
      {"measurement": "L2FC (x + 1)", "setting": "U2SURP AK057679", "value": 0.182},
      {"measurement": "L2abs (Cpd-DMSO)", "setting": "U2SURP AK057679", "value": 4.73},
      {"measurement": "abs (Cpd-DMSO)", "setting": "U2SURP AK057679", "value": 27, "unit": "iFPM"},
      {"measurement": "amp FC (x + 1)", "setting": "U2SURP AK057679", "value": 1.13},
      {"measurement": "ave Cpd", "setting": "U2SURP AK057679", "value": 223, "unit": "iFPM"},
      {"measurement": "FC (x + 1)", "setting": "U2SURP AK296440", "value": 0.9747},
      {"measurement": "L2FC (x + 1)", "setting": "U2SURP AK296440", "value": "−0.037"},
      {"measurement": "L2abs (Cpd-DMSO)", "setting": "U2SURP AK296440", "value": 2.77},
      {"measurement": "abs (Cpd-DMSO)", "setting": "U2SURP AK296440", "value": 7, "unit": "iFPM"},
      {"measurement": "amp FC (x + 1)", "setting": "U2SURP AK296440", "value": 1.03},
      {"measurement": "ave Cpd", "setting": "U2SURP AK296440", "value": 261, "unit": "iFPM"},
      {"measurement": "FC (x + 1)", "setting": "U2SURP BC006474", "value": 0.9155},
      {"measurement": "L2FC (x + 1)", "setting": "U2SURP BC006474", "value": "−0.127"},
      {"measurement": "L2abs (Cpd-DMSO)", "setting": "U2SURP BC006474", "value": 6.85},
      {"measurement": "abs (Cpd-DMSO)", "setting": "U2SURP BC006474", "value": 115, "unit": "iFPM"}
    ]}
  ]
}
